Test results reported in patent US5643784A, “Indan derivatives” (H, Lundbeck A/S, priority 1990, dated 1997).

Assays:
5-HT2 receptors = target: T1, 5-HT2 receptors (Rattus norvegicus, UniProt P14842); test: Inhibition of 3H-ketanserin binding to 5-HT2 receptors in rat cortex in vitro; conditions: 3H-Ketanserin 0.5 nM, rat cortex, 37° C., 30 min; read-out: Receptor Binding; IC50 5-HT2 3H-Ket
T1 construct: cortical tissue is dissected and weighed; from tissue; host or cells: cortex of male Wistar rats, crude membranes
T1 sequence (P14842 whole entry): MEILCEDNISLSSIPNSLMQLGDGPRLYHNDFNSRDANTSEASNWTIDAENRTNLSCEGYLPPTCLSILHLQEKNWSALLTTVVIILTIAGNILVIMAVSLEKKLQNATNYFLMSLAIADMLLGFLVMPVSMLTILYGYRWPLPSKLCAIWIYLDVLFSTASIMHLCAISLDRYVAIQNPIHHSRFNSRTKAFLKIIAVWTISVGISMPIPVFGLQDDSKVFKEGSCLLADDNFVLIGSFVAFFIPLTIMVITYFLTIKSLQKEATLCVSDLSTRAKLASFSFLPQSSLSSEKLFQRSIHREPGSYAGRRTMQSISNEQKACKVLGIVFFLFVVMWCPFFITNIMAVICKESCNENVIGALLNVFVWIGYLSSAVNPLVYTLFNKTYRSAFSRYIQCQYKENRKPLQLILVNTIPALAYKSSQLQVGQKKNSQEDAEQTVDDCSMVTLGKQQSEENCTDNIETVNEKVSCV

α1 adrenoceptors = test: Inhibition of 3H-prazosin binding to α1 adrenoceptors in rat brain in vitro; conditions: 3H-Prazosin 0.25 nM, rat brain, 25° C., 20 min; read-out: Receptor Binding; IC50 α1 3H-Praz
male albino BKW mice = test: Light/dark discrimination test in mice; assay type: in vivo, mouse; conditions: intraperitoneally 45 min before testing, doses from 0.01 to 1 mg/kg
Procedure: LIGHT/DARK DISCRIMATION TEST IN MICE
This test was carried out in accordance with the method described in Costall et al. Br. J. Pharmacol. 90 275P (1987).
The test was conducted using a two compartment activity box in which the actions of anxiolytic compounds to reduce aversion against a brightly-lit environment may be readily detected. The box is designed as an open-top experimental box (45*27*27 cm) one third of which was partitioned from the rest, painted black and illuminated with red light. The remainder of the box was painted white and brightly illuminated (1000 W). The floor of each area was lined into squares. Behavioral changes were determined for each area from video recordings for periods of 40 min.
Data obtained from dose groups of 5 animals (male albino BKW mice, 25-30 g) were analysed using single factor analysis of variance, and Dunnett's t-test. Test compounds were given intraperitoneally 45 min before testing.

Wistar WU rats = test: Light/dark discrimination test in rats; assay type: in vivo, rat; conditions: doses from 0.1 to 1 mg/kg
Procedure: LIGHT/DARK DISCRIMINATION TEST IN RATS
The test was carried out similarly to the test in mice described above, however modified in accordance with F. C. Colpaert et al., Psychopharmacology (1985) 86:45-54. The test used Wistar WU rats.

dopamine D-2 receptors = target: T2, dopamine D-2 receptors (Rattus norvegicus, UniProt P61169); test: Inhibition of 3H-spiperone binding to dopamine D-2 receptors in rat corpus striatum in vitro; conditions: 3H-spiperone 0.5 nM, rat corpus striatum, 37° C., 10 min; read-out: Receptor Binding; IC50 DA D-2 3H-Spi
T2 construct: striatal tissue is dissected and weighed; from tissue; host or cells: corpus striatum of male Wistar rats, crude membranes
T2 sequence (P61169 whole entry): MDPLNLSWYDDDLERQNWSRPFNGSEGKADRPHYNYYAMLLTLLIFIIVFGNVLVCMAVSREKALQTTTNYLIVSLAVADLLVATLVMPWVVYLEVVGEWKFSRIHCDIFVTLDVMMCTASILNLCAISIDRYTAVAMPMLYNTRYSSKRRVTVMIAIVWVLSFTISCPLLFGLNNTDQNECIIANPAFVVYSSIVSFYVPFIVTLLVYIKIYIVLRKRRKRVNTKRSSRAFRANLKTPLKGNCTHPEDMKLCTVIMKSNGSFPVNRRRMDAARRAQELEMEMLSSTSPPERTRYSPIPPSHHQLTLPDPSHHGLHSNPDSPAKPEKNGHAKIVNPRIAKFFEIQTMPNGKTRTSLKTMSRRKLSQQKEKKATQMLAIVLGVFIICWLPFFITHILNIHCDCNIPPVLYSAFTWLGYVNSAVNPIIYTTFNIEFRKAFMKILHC
Procedure: INHIBITION OF ^3 H-SPIPERONE BINDING TO DOPAMINE D-2 RECEPTORS IN RAT CORPUS STRIATUM IN VITRO
By this method the inhibition by drugs of the binding of ^3 H-spiperone (0.5 nM) to dopamine D-2 receptors in membranes from rat corpus striatum is determined in vitro.
Male Wistar (Mol:Wistar) rats (125-250 g) are sacrificed and striatal tissue is dissected and weighed. The tissue is homogenized (Ultra Turrax, 10 sec.) in 10 ml of ice-cold 50 mM K-phosphate buffer pH 7.4 (at 25° C.). The homogenate is centrifuged twice at 20,000 g for 10 min. at 4° C. with rehomogenization of the pellet in 10 ml ice-cold buffer. The final pellet is homogenized in 1300 vol (w/v) ice-cold buffer.
Incubation tubes kept on ice in triplicate receive 100 μl of drug solution in water (or water for total binding) and 4000 μl of tissue suspension (final tissue content corresponds to 3.08 mg original tissue). The binding experimental is initiated by addition of 100 μl of ^3 H-spiperone (final concentration 0.5 nM) and by placing the tubes in a 37° C. water bath. After incubation for 10 min. the samples are filtered under vacuum (0-50 mBar) through Whatman GF/F filters (25 mm). The tubes are rinsed with 5 ml ice-cold buffer which are then poured on the filters. Thereafter, the filters are washed with 2×5 ml of buffer. The filters are placed in counting vials and 4 ml of appropriate scintillation fluid (e.g. Picofluor ™15) are added. After shaking for 1 h and storage 2 hrs in the dark the content of radioactivity is determined by liquid scintillation counting. Specific binding is obtained by subtracting the nonspecific binding in the presence of 10 μM of 6,7-ADTN.
For determination of the inhibition of binding five concentrations of drugs covering 3 decades are used.
^3 H-Spiperone=[phenyl-4-^3 H]-spiperone from Amersham International plc. England, specific activity 15-25 Ci/mmol.

[1] = Meert and Janssen, Drug Dev. Res. 1989, 18, 119; cited from earlier work

Question: Which IC50 (5-HT2 receptors) does the source give for O=C1NCCCN1CCN1CCN([C@@H]2C[C@@H](c3ccc(F)cc3)c3cc(F)ccc32)CC1 (single isomer, unassigned) [(+)-33, (+)-Trans-1-[2-[4-[5-fluoro-3-(4-fluorophenyl)-2,3-dihydro-1H-inden-1-yl]piperazin-1-yl]ethyl]-tetrahydro-2(1H)-pyrimidinone] here?
Answer: 1.1 nM

Question: And the IC50 (α1 adrenoceptors)?
Answer: 41 nM

Question: And the anxiolytic activity (male albino BKW mice)?
Answer: significant anxiolytic activity (p<0.05) in doses from 0.01 to 1 mg/kg

Question: What about the anxiolytic activity (Wistar WU rats) of the same compound?
Answer: significant anxiolytic activity (p<0.05) in doses from 0.1 to 1 mg/kg

Question: Which IC50 (5-HT2 receptors) does the source give for Fc1ccc([C@@H]2C[C@@H](N3CCN(CCN4CCCNC4=S)CC3)c3ccc(Cl)cc32)cc1 (single isomer, unassigned) [(-)-32, (-)-Trans-1-[2-[4-[5-chloro-3-(4-fluorophenyl)-2,3-dihydro-1H-inden-1-yl]piperazin-1-yl]ethyl]-tetrahydro-2(1H)-pyrimidinethione] here?
Answer: 0.75 nM

Question: And the IC50 (α1 adrenoceptors)?
Answer: 67 nM

Question: What about the anxiolytic activity (male albino BKW mice) of the same compound?
Answer: significant anxiolytic activity (p<0.05) in doses from 0.01 to 1 mg/kg

Question: And the anxiolytic activity (Wistar WU rats)?
Answer: significant anxiolytic activity (p<0.05) in doses from 0.1 to 1 mg/kg

Question: For Cc1nc2sccn2c(=O)c1CCN1CCC(=C(c2ccc(F)cc2)c2ccc(F)cc2)CC1 [Ritanserin, reference compound], which IC50 (dopamine D-2 receptors) is on record?
Answer: 12 nM

Question: And the IC50 (α1 adrenoceptors)?
Answer: 47 nM

Question: What about the “effect in the treatment of anxiety and depression” value [1] of the same compound?
Answer: effective in the treatment of anxiety and depression
